From PubChem BioAssay (NCI)
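In this assay, cells in 96-well plates receive the compound at five concentrations for 48 hours. Endpoints are linearly interpolated between the surrounding concentrations. TGI denotes the concentration required for complete inhibition of growth.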

What was measured:
Experiment in all cases: DTP human tumour cell line panel, 48 h
UACC-62 melanoma = system: UACC-62 melanoma
TK-10 renal = system: TK-10 renal
HOP-92 NSCLC = system: HOP-92 NSCLC
SK-OV-3 ovarian = system: SK-OV-3 ovarian
SF-268 CNS = system: SF-268 CNS
U251 CNS = system: U251 CNS
ACHN renal = system: ACHN renal
OVCAR-3 ovarian = system: OVCAR-3 ovarian
SW-620 colon = system: SW-620 colon
MALME-3M melanoma = system: MALME-3M melanoma
NCI-H460 lung = system: NCI-H460 lung

| Compound | TGI (UACC-62 melanoma) [µM] | TGI (TK-10 renal) [µM] | TGI (HOP-92 NSCLC) [µM] | TGI (SK-OV-3 ovarian) [µM] | TGI (SF-268 CNS) [µM] | TGI (U251 CNS) [µM] | TGI (ACHN renal) [µM] | TGI (OVCAR-3 ovarian) [µM] | TGI (SW-620 colon) [µM] | TGI (MALME-3M melanoma) [µM] | TGI (NCI-H460 lung) [µM] |
| --- | --- | --- | --- | --- | --- | --- | --- | --- | --- | --- | --- |
| C=C(Cl)C(Br)(CBr)CCC(Br)C(C)(C)Br (stereo not drawn) | > 10 | > 10 | > 10 | > 10 | 6.25 | > 10 | > 10 | > 10 | 9.33 | – | – |
| COC(=O)/C=C(\S/C(=C(/c1ccc(OC)cc1)n1cc(C(=O)OC)c(C(=O)OC)n1)c1ccc(OC)cc1)C(=O)OC | > 100 | 19 | – | > 100 | 78.8 | > 100 | 18.5 | 13.2 | > 100 | 37.1 | > 100 |
| COC(=O)c1cc(C#N)[nH]c1-c1cccs1 | > 100 | – | > 100 | > 100 | > 100 | > 100 | > 100 | > 100 | > 100 | – | > 100 |
| CC(C)=CCC[C@@H](C)C1=C(Nc2ccccc2)C(O)=C(C)C(=O)C1=O | 20.7 | > 55.1 | 9.9 | > 36.4 | 25.2 | > 56.1 | – | 8.97 | > 48 | 19.9 | > 40 |
| N#CC1=C(N)Nc2nc3ccccc3n2C1c1ccccc1 (stereo not drawn) | > 100 | – | – | > 100 | > 100 | > 100 | 68.5 | 97.7 | > 100 | – | > 100 |
| O=C(Nc1ccccc1)C(=O)C(C(=O)c1ccccc1)C(c1ccccc1)c1ccccc1 (stereo not drawn) | > 10 | > 10 | > 10 | > 10 | > 10 | – | – | – | > 10 | > 10 | – |
| N#CC1=C(N2CCOCC2)CCC1 | > 100 | > 100 | – | > 100 | > 100 | > 100 | > 100 | > 100 | > 100 | > 100 | – |
| C=CC(c1ccccc1)C1(O)c2cccc(O)c2C(=O)c2c(O)cccc21 (stereo not drawn) | – | 38.6 | 30.5 | – | 36.6 | 24.5 | 31.9 | 38.9 | 37 | – | 36.7 |
| C/C(=C/CNc1ncnc2c1ncn2CCC#N)CO | > 100 | > 100 | > 100 | > 100 | > 100 | – | > 100 | > 100 | > 100 | > 100 | > 100 |
| COc1ccccc1CNCc1nc2ccccc2[nH]1 | > 100 | > 100 | > 100 | – | > 100 | > 100 | > 100 | > 100 | > 100 | – | > 100 |
| O=c1[nH]c2ccsc2c(=O)n1COCc1ccccc1 | – | > 100 | > 100 | – | > 100 | > 100 | > 100 | > 100 | > 100 | > 100 | > 100 |
| Cc1nc2ccc(N=NN(C)C)cc2[nH]1 | > 100 | > 100 | – | > 100 | > 100 | > 100 | > 100 | > 100 | > 100 | > 100 | > 100 |
